Test [1] concerns the target T1, human Cav3.2 channels (Homo sapiens, UniProt O95180).
T1 construct: expressed in transfected cells; host or cells: HEK293 cells (ATCC No. CRL-1573), plasmid pcDNA3.1(+)
The experiment in a line: Intracellular calcium concentration measurement (Fluo-4 AM) in stable cells expressing human Cav3.2 channels, buffer A / buffer B. The class given is cell-based. The gist of the method: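 HEK293 cells stably expressing human Cav3.2, Fluo-4 loaded, preincubated 15 min at room temperature with compound (0.1% DMSO final) in buffer A (K+ equilibrium −92 mV) or B (−110 mV). After ionophore, KCl (83.8 or 91.8 mM) stimulus; 10 s fluorescence rise (ex 485/em 510 nm) gave % inhibition and IC50.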
Background: Calcium flux is commonly read through the fluorescence of an indicator in the cells.

Test [2] addresses T1, human Cav3.2 channels. Kind of test: Electrophysiological evaluation, whole-cell patch-clamp with automatic patch-clamp system. The class given is cell-based. To be noted: for inhibition at 0.3 µM: holding potential −80 mV, read-out: Cav3.2 channel current inhibition ratio at 0.3 μM of test compound (holding potential −80 mV). The procedure:
Electrophysiological Evaluation
Stable cell line expressing human Cav3.2 channels, which had been produced by Test method (1) of Example 140, was seeded in a 10-cm dish using DMEM medium containing 10% FBS, and the cells were cultured for 24 hours or longer under the conditions of 37° C. and 5% CO2. The cells were detached using Accutase and were used after being suspended in ice-cold extracellular solution. The Cav3.2 channel current was measured by the Whole-cell patch-clamp method using an automatic patch-clamp system (Port-a-Patch; Nanion Technologies GmbH, EPC-10; HEKA Elektronik GmbH, Patchmaster; HEKA Elektronik GmbH) and buffers described below. Measurement of the Cav3.2 channel current was carried out at room temperature, and the measurement conditions were set as follows: holding potential: −80 mV, depolarization potential: −20 mV, depolarization time: 100 msec, and depolarization frequency: 10 sec. The Cav3.2 channel current was defined as the peak value of the inward current observed when depolarization occurred at −20 mV.
For a test compound, a DMSO solution was diluted 1,000 times with extracellular solution, and thus a solution having an intended concentration was produced. The test compound was applied using an extracellular perfusion system (Nanion Technologies GmbH) until the Cav3.2 channel current was stabilized, and five concentrations at the maximum from the low-concentration side were cumulatively applied. The inhibition ratio of the test compound was calculated from the current value immediately before the application of the test compound and the change rate of the Cav3.2 channel current after the application of the test compound (conditions for a holding potential of −80 mV: test compound concentration of 0.3 μM, conditions for a holding potential of −100 mV: test compound concentration of 3 μM).
Extracellular solution: 135 mM NaCl, 4 mM KCl, 1 mM MgCl2, 5 mM CaCl2, 5 mM D-Glucose, and 10 mM HEPES, pH 7.4
Internal solution for electrode: 10 mM NaCl, 10 mM HEPES, 50 mM CsCl, 60 mM CsF, and 20 mM EGTA, pH 7.2
(In general: Patch clamp records ionic current or voltage across a cell membrane.)

The mark [3] stands for this setting: Tables 2 to 6, buffer A, equilibrium potential of potassium −92 mV, read-out: Inhibitory action of buffer A (inactivated state).
Setting [4] is: Table 1, buffer A, equilibrium potential of potassium −92 mV, read-out: Inhibitory action of buffer A (inactivated state).
Setting [5] is: Table 1, buffer B, equilibrium potential of potassium −110 mV, read-out: Inhibitory action of buffer B (resting state or closed state).

SMILES strings stand for the structures. pIC50: −log10 of the molar value. Like-named read-outs stand apart in the source and are kept apart here.

T1 sequence (O95180 whole entry): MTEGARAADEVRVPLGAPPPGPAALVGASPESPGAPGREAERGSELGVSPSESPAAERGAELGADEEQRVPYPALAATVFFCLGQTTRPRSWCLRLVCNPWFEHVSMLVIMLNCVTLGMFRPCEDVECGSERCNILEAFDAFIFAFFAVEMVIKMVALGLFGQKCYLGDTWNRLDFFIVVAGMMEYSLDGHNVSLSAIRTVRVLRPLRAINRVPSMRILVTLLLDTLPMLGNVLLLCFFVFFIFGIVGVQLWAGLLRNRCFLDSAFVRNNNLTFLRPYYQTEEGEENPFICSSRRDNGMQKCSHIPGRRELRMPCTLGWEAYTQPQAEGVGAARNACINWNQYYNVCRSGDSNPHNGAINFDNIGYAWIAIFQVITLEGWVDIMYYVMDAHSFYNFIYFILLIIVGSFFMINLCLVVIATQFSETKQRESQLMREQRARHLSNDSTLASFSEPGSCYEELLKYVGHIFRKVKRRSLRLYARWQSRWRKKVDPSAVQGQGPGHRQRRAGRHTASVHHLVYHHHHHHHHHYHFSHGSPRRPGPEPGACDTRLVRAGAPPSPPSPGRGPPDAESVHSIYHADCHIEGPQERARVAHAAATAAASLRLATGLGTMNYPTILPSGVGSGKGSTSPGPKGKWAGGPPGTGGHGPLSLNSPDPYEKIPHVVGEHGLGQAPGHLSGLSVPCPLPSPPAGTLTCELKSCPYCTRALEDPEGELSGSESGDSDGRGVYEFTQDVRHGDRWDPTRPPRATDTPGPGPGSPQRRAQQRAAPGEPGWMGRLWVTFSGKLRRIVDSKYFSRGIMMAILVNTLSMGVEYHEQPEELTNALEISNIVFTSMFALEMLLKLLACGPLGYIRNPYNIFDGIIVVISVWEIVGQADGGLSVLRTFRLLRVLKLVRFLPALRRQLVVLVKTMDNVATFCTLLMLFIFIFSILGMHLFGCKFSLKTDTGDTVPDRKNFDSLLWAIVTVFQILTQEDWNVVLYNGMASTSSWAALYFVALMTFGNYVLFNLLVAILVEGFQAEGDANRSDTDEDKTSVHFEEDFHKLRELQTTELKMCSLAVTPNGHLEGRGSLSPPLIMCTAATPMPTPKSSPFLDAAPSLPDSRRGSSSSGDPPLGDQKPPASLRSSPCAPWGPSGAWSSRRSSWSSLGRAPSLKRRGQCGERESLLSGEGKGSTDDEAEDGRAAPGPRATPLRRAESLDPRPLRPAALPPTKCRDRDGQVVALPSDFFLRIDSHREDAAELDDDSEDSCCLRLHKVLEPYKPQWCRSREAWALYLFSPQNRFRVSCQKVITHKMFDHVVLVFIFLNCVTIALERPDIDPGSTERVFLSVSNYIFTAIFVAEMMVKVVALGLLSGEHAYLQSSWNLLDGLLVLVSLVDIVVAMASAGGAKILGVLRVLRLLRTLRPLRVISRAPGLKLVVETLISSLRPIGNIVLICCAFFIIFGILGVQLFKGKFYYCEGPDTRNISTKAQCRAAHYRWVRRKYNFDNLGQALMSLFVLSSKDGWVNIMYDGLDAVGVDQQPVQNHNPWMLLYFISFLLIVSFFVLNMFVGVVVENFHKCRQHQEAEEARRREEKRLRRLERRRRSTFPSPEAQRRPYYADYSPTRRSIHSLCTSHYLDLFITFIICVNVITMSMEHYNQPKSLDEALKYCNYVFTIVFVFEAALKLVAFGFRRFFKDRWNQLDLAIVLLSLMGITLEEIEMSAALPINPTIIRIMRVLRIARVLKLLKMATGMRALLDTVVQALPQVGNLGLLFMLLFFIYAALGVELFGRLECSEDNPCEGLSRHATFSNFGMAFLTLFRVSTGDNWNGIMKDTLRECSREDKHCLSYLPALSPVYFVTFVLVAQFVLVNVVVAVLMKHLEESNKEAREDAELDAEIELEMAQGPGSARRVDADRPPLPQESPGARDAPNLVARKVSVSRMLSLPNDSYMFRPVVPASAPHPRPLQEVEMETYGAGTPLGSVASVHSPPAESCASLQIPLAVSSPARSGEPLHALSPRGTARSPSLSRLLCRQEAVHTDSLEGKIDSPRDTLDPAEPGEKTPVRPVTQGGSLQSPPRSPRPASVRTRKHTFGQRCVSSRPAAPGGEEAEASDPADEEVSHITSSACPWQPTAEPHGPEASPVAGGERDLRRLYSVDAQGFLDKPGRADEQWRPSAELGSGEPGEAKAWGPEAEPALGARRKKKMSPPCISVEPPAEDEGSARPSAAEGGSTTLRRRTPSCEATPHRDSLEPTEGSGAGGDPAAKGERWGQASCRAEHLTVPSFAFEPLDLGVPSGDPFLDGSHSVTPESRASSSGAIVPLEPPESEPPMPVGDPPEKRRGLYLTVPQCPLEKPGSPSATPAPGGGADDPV

Take `C[C@@H](NC(=O)[C@H]1C[C@@H]1c1nc2ccccc2[nH]1)c1cc2cc(F)cc(F)c2o1` [Example 88, (1S,2S)-2-(1H-benzo[d]imidazol-2-yl)-N—((R)-1-(5,7-difluorobenzofuran-2-yl)ethyl)cyclopropane-1-carboxamide]: the pIC50 on human Cav3.2 channels [1] (setting [3]) is no less than 7.00. The inhibition at 0.3 µM at human Cav3.2 channels [2] was found to be 37%.

Turning to `C[C@@H](NC(=O)[C@H]1C[C@@H]1c1nc2ccccc2[nH]1)c1cc2ccccc2o1` [Example 76, (1S,2S)-2-(1H-benzo[d]imidazol-2-yl)-N—((R)-1-(benzofuran-2-yl)ethyl)cyclopropane-1-carboxamide], the pIC50 on human Cav3.2 channels [1] (setting [3]) was 6.00 to 7.00. For the same molecule, on human Cav3.2 channels [2], the inhibition at 0.3 µM came to 49%. The like results for `C[C@@H](NC(=O)[C@H]1C[C@@H]1c1nc2ccccc2[nH]1)c1cc2cc(Cl)ccc2o1` [Example 82, (1S,2S)-2-(1H-benzo[d]imidazol-2-yl)-N—((R)-1-(5-chlorobenzofuran-2-yl)ethyl)cyclopropane-1-carboxamide] were, in that order, no less than 7.00 and 88%. The like results for `C[C@@H](NC(=O)[C@H]1C[C@@H]1c1nc2ccccc2[nH]1)c1cc2cc(F)ccc2s1` [Example 66, (1S,2S)-2-(1H-benzo[d]imidazol-2-yl)-N—((R)-1-(5-fluorobenzo[b]thiophen-2-yl)ethyl)cyclopropane-1-carboxamide] were, in that order, no less than 7.00 and 81%.

For the molecule `C[C@@H](NC(=O)[C@H]1C[C@@H]1c1nc2ccccc2[nH]1)c1cc2ccccn2n1` [Example 93, (1S,2S)-2-(1H-benzo[d]imidazol-2-yl)-N—((R)-1-(pyrazolo[1,5-a]pyridin-2-yl)ethyl)cyclopropane-1-carboxamide], the pIC50 on human Cav3.2 channels [1] (setting [3]) is 5.00 to 6.00. The inhibition at 0.3 µM on human Cav3.2 channels [2] stood at 22%. The like results for `C[C@@H](NC(=O)C1CC1c1nc(-c2ccccn2)c[nH]1)c1ccc(OCC(F)(F)F)s1` (mixture of isomers) [Example 39, Trans-2-(4-(pyridin-2-yl)-1H-imidazol-2-yl)-N—((R)-1-(5-(2,2,2-trifluoroethoxy)thiophen-2-yl)ethyl)cyclopropane-1-carboxamide] were, in that order, 6.00 to 7.00 and 50%. The like results for `Cc1nc(OCC(F)(F)F)sc1[C@@H](C)NC(=O)[C@H]1C[C@@H]1c1nc2ccccc2[nH]1` [Example 51, (1S,2S)-2-(1H-benzo[d]imidazol-2-yl)-N—((R)-1-(4-methyl-2-(2,2,2-trifluoroethoxy)thiazol-5-yl)ethyl)cyclopropane-1-carboxamide] were, in that order, 6.00 to 7.00 and 33%. Taken in the same sequence, the figures for `C[C@@H](NC(=O)[C@H]1C[C@@H]1c1nc2ccccc2[nH]1)c1ccc(C(=O)N(C)c2ccc(F)cc2)s1` [Example 62, Trans-5-((1R)-1-(2-(1H-benzo[d]imidazol-2-yl)cyclopropane-1-carboxamido)ethyl)-N-(4-fluorophenyl)-N-methylthiophene-2-carboxamide] were 6.00 to 7.00 and 34%. Turning to `C[C@@H](NC(=O)C1CC1c1nc2ccccc2[nH]1)c1cnc(OCC(F)(F)F)s1` (single isomer, unassigned) [Example 8A], at human Cav3.2 channels [1] (setting [4]), the pIC50 is 6.00 to 7.00. The pIC50 at human Cav3.2 channels [1] (setting [5]) is less than 5.00. Further, at human Cav3.2 channels [2], the inhibition at 0.3 µM is 1% and the “Cav3.2 channel current inhibition ratio at 3 μM of test compound (holding potential −100 mV)” value turned out to be 13%. `C[C@@H](NC(=O)C1CC1c1c[nH]c2ccccc12)c1cnc(OCC(F)(F)F)s1` (single isomer, unassigned) [Example 49]: at human Cav3.2 channels [1] (setting [3]), the pIC50 was no less than 7.00. For the same molecule, on human Cav3.2 channels [2], the inhibition at 0.3 µM stood at 35%. As to `C[C@@H](NC(=O)C1CC1c1nc2ccccc2[nH]1)c1cnc(OCC(F)(F)F)cn1` (some centres unmarked) [RQ-00311651, reference compound], at human Cav3.2 channels [2], the inhibition at 0.3 µM stood at 17% and the “Cav3.2 channel current inhibition ratio at 3 μM of test compound (holding potential −100 mV)” value came out at 14%.

`C[C@H](NC(=O)C1CC1c1nc2ccccc2[nH]1)c1ccc(OCC(F)(F)F)s1` (single isomer, unassigned) [Example 2A]: the pIC50 is 5.00 to 6.00 at human Cav3.2 channels [1] (setting [4]) and less than 5.00 on human Cav3.2 channels [1] (setting [5]). Consider `C[C@@H](NC(=O)C1CC1c1cn(C)c2ccccc12)c1cnc(OCC(F)(F)F)s1` (single isomer, unassigned) [Example 48], for which the pIC50 on human Cav3.2 channels [1] (setting [3]) is no less than 7.00. On the same count and under the same terms, the figure for `C[C@@H](NC(=O)C1CC1c1c[nH]c2ccccc12)c1cc2cc(F)ccc2o1` (single isomer, unassigned) [Example 98A] is 6.00 to 7.00; for `CCn1c(C2CC2C(=O)N[C@H](C)c2cnc(OCC(F)(F)F)s2)nc2ccccc21` (single isomer, unassigned) [Example 57A] it is 6.00 to 7.00; for `C[C@@H](NC(=O)[C@H]1C[C@@H]1c1nc2ccccc2[nH]1)c1cc2cccc(F)c2o1` [Example 96, (1S,2S)-2-(1H-benzo[d]imidazol-2-yl)-N—((R)-1-(7-fluorobenzofuran-2-yl)ethyl)cyclopropane-1-carboxamide] it is 6.00 to 7.00. Still for that read-out and setting: with `C[C@@H](NC(=O)C1CC1c1cn(C)c2ccccc12)c1ccc(OCC(F)(F)F)s1` (single isomer, unassigned) [Example 29B] the figure was less than 5.00. Regarding `C[C@@H](NC(=O)C1CC1c1nc2ccccc2[nH]1)c1cnn(CCC(F)(F)F)c1` (some centres unmarked) [Example 9], at human Cav3.2 channels [1] (setting [4]), the pIC50 is less than 5.00. As to `C[C@@H](NC(=O)C1CC1c1nc2ccccc2o1)c1ccc(OCC(F)(F)F)s1` (single isomer, unassigned) [Example 40B], the pIC50 at human Cav3.2 channels [1] (setting [3]) was less than 5.00.

In the case of `Cc1cc([C@@H](C)NC(=O)C2CC2c2nc3ccccc3[nH]2)sc1OCC(F)(F)F` (single isomer, unassigned) [Example 1A], the pIC50 was 6.00 to 7.00 on human Cav3.2 channels [1] (setting [4]) and less than 5.00 on human Cav3.2 channels [1] (setting [5]). As to `C[C@@H](NC(=O)[C@H]1C[C@@H]1c1nc2ccccc2[nH]1)c1cnc(-c2ccccc2)s1` [Example 89, (1S,2S)-2-(1H-benzo[d]imidazol-2-yl)-N—((R)-1-(2-phenylthiazol-5-yl)ethyl)cyclopropane-1-carboxamide], at human Cav3.2 channels [1] (setting [3]), the pIC50 was 6.00 to 7.00. Still for that read-out and setting: with `C[C@@H](NC(=O)[C@H]1C[C@@H]1c1nc2cc(Cl)ccc2[nH]1)c1cc2cc(F)ccc2o1` [Example 81, (1S,2S)-2-(5-chloro-1H-benzo[d]imidazol-2-yl)-N—((R)-1-(5-fluorobenzofuran-2-yl)ethyl)cyclopropane-1-carboxamide] the figure was no less than 7.00. Same read-out and setting: with `O=C(NC1(c2cc3cc(F)ccc3o2)CC1)[C@H]1C[C@@H]1c1nc2ccccc2[nH]1` [Example 128, (1S,2S)-2-(1H-benzo[d]imidazol-2-yl)-N-(1-(5-fluorobenzofuran-2-yl)cyclopropyl)cyclopropane-1-carboxamide] the figure was 6.00 to 7.00; with `C[C@@H](NC(=O)[C@H]1C[C@@H]1c1nc(-c2ccccn2)c[nH]1)c1ccc(OCC(F)(F)F)s1` [Example 46, (1S,2S)-2-(4-(pyridin-2-yl)-1H-imidazol-2-yl)-N—((R)-1-(5-(2,2,2-trifluoroethoxy)thiophen-2-yl)ethyl)cyclopropane-1-carboxamide], 6.00 to 7.00; with `CC(NC(=O)[C@H]1C[C@@H]1c1nc2ccccc2[nH]1)c1cc2cnccc2o1` (stereo partly drawn) [Example 99, (1S,2S)-2-(1H-benzo[d]imidazol-2-yl)-N-(1-(furo[3,2-c]pyridin-2-yl)ethyl)cyclopropane-1-carboxamide], 5.00 to 6.00.

Regarding `Cc1ccc2nc(C3CC3C(=O)N[C@H](C)c3ccc(OCC(F)(F)F)s3)[nH]c2n1` (single isomer, unassigned) [Example 106A], the pIC50 on human Cav3.2 channels [1] (setting [3]) is 5.00 to 6.00.
